Experimental data from patent publication US4137236A, “Amino-spiro[oxa(or thia)cycloalkane-penam]-carboxylic” (U C B, Societe Anonyme, priority 1977, dated 1979).

What was measured:
Format in all cases: cell-based
[1] = test system: Escherichia coli B; assay: MIC in gelose culture medium (relative to reference penicillin); settings: E.COLI B; reference 6-amino-penicillanic acid = 1
Protocol: This is a well-known collection strain of Escherichia coli which produces very little beta-lactamase (of type I) and is, therefore, very sensitive to penicillins. As regards the classification of the beta-lactamases, use is here made of that proposed by M. H. RICHMOND and R. B. SYKES (see Advances in Microbial Physiology,9,(1973),pp.43 and 45).
(§1) For a certain number of compounds of formula (XV), the minimum inhibitory concentration (MIC) was determined as follows:
(§2) The products to be tested are introduced in increasing concentrations into a gelose culture medium in Petri dishes. A multiple inoculator is used to deposit simultaneously drops (10 microliters) of inoculum (suspension of approximately 10^5 bacteria per ml) onto the surface of the medium. After incubation at 37° C for 24 hours, the growth of the bacteria is observed. By definition, the MIC is expressed by the minimum concentration of tested compound which inhibits the multiplication of the bacteia. In the following results, however, the MIC is given as being equal to 1 for the reference compounds and the activity figures given for the tested compounds of formula (XV) are, therefore, relative values. This presentation of the results is more correct and the most reproducible because, for one and the same bacterial strain, different MIC values can be observed if they are measured at different times. This is bound up with the "seasonal" variations in the strains and their nutrient medium.

[2] = test system: Gram-positive and Gram-negative bacteria; assay: Comparative antibacterial activity spectra; settings: towards both Gram-positive and Gram-negative bacteria
Protocol: as §2

[3] = test system: Staphylococcus aureus 52149; assay: MIC in gelose culture medium (relative to reference penicillin); settings: S.AUREUS 52149; reference 6-amino-penicillanic acid = 1
Protocol: This is a Gram-positive coccus, the intrinsic sensitivity of the receptor of which is equivalent to that of the preceding strain but which produces a beta-lactamase which is typical of the species and which renders it resistant to all the penicillins which are sensitive to hydrolysis.
as §1, §2

[4] = test system: Staphylococcus aureus 6538; assay: as above; settings: S.AUREUS 6538; reference 6-amino-penicillanic acid = 1
Protocol: This is a Gram-positive coccus which is particularly sensitive to penicillins and which has a low resistance mechanism. This strain of Staphylococcus is, therefore, representative of a maximum sensitivity of the species.
as §1, §2

[5] = test system: Escherichia coli B-Ampi R; assay: as above; settings: E.COLI B AMPI-R; reference 6-amino-penicillanic acid = 1
Protocol: This is a mutant of the preceding strain which we have produced.
as §1, §2

With N[C@@H]1C(=O)N2[C@@H]1SC1(CCOCC1)[C@@H]2C(=O)O (relative stereo) [Compound D, 6-amino-2',3',5',6'-tetrahydro-spiro[penam-2,4'-[4H]-pyran]-3-carboxylic acid] the “MIC relative to reference compound (=1)” value [1] was 0.3, the “Activity as compared with 6-amino-penicillanic acid (in words)” value [2] was “better activity” and the “MIC relative to reference compound (=1)” value [3] was 0.5. For the same molecule, the “MIC relative to reference compound (=1)” value [4] was 0.5 and the “MIC relative to reference compound (=1)” value [5] was 0.3.
